Test results: ChEMBL document CHEMBL1133906, “Leishmanicidal activity of some stilbenoids and related heterocyclic compounds” (Bioorg Med Chem Lett, 2001)
Values after ≈ are worked out from the molar mass of the structure shown.

Tests used:
Assay type in all cases: functional, organism-based
Leishmania donovani = experiment: In vitro inhibitory activity against Leishmania donovani (PP75)
Leishmania amazonensis = experiment: In vitro inhibitory activity against Leishmania amazonensis (PH8)
Leishmania braziliensis = experiment: In vitro inhibitory activity against Leishmania braziliensis (M2903)

| Structure (SMILES) | IC50 (Leishmania donovani) [µg/mL] | IC50 (Leishmania amazonensis) [µg/mL] | IC50 (Leishmania braziliensis) [µg/mL] |
| --- | --- | --- | --- |
| COc1ccc(Cc2nn(C)c(=O)c3ccccc23)cc1 | ≥ 100 | ≥ 100 | ≥ 100 |
| OC1(Cc2ccc(Cl)cc2)c2ccccc2C2=NCCN21 (stereo unspecified) | ≥ 100 | ≥ 100 | ≥ 100 |
| O=C(Cc1ccc2c(c1)OCO2)c1ccccc1C(=O)N1CCCCC1 | ≥ 100 | ≥ 100 | ≥ 100 |
| O=C(C(=O)c1ccccc1C(=O)N1CCCCC1)c1ccc2c(c1)OCO2 | ≥ 100 | ≥ 100 | ≥ 100 |
| COc1ccc(/C=C2\OC(=O)c3ccccc32)cc1OC | ≥ 100 | ≥ 100 | ≥ 100 |
| O=C(C(=O)c1ccccc1C(=O)N1CCCCC1)c1ccccc1 | 75 (≈ 233 µM) | 75 (≈ 233 µM) | 75 (≈ 233 µM) |
| COc1ccc(CC2(O)c3ccccc3C3=NCCCN32)cc1OC (stereo unspecified) | ≥ 100 | ≥ 100 | ≥ 100 |
| COc1ccc(C(=O)C(=O)c2ccccc2C(=O)N2CCCCC2)cc1OC | ≥ 100 | ≥ 100 | ≥ 100 |
| COc1cc(/C=C2\OC(=O)c3ccccc32)cc(OC)c1OC | ≥ 100 | 52 (≈ 166 µM) | ≥ 100 |
| COc1ccc(CC(=O)c2ccccc2C(=O)N2CCCCC2)cc1 | ≥ 100 | ≥ 100 | ≥ 100 |
| COc1ccc(CC2(O)c3ccccc3C(=O)N2NC(C)(C)C)cc1 (stereo unspecified) | ≥ 100 | ≥ 100 | ≥ 100 |
| Cn1nc(Cc2ccccc2)c2ccccc2c1=O | ≥ 100 | ≥ 100 | ≥ 100 |
| O=C1O/C(=C\c2ccc(Cl)cc2)c2ccccc21 | 52 (≈ 203 µM) | ≥ 100 | ≥ 100 |
| O=C(Cc1ccccc1)c1ccccc1C(=O)N1CCCCC1 | ≥ 100 | ≥ 100 | ≥ 100 |
| OC1(Cc2ccc(Cl)cc2)c2ccccc2C2=NCCCN21 (stereo unspecified) | ≥ 100 | ≥ 100 | ≥ 100 |
| O=C1O/C(=C\c2ccc3c(c2)OCO3)c2ccccc21 | ≥ 100 | ≥ 100 | ≥ 100 |
| COc1cc(Cc2nnc(O)c3ccccc23)cc(OC)c1OC | ≥ 100 | ≥ 100 | ≥ 100 |
| COc1cc(Cc2nn(C)c(=O)c3ccccc23)cc(OC)c1OC | ≥ 100 | ≥ 100 | ≥ 100 |
| COc1cc(CC2(O)c3ccccc3C3=NCCCN32)cc(OC)c1OC (stereo unspecified) | ≥ 100 | ≥ 100 | ≥ 100 |
| OC1(Cc2ccc3c(c2)OCO3)c2ccccc2C2=NCCCN21 (stereo unspecified) | ≥ 100 | ≥ 100 | ≥ 100 |
| COc1ccc(CC2(O)c3ccccc3C3=NCCN32)cc1 (stereo unspecified) | ≥ 100 | ≥ 100 | ≥ 100 |
| Oc1nnc(Cc2ccc(Cl)cc2)c2ccccc12 | ≥ 100 | ≥ 100 | ≥ 100 |
| COc1ccc(CC2(O)c3ccccc3C3=NCCN32)cc1OC (stereo unspecified) | ≥ 100 | ≥ 100 | ≥ 100 |
| OC1(Cc2ccc3c(c2)OCO3)c2ccccc2C2=NCCN21 (stereo unspecified) | ≥ 100 | ≥ 100 | ≥ 100 |
| COc1ccc(/C=C2/c3ccccc3C(=O)N2NC(C)(C)C)cc1 | ≥ 100 | ≥ 100 | ≥ 100 |
| O=C(C(=O)c1ccccc1C(=O)N1CCCCC1)c1ccc(Cl)cc1 | 28 (≈ 78.7 µM) | 25 (≈ 70.3 µM) | 52 (≈ 146 µM) |

| Structure (SMILES) | IC50 (Leishmania donovani) [µg/mL] | IC50 (Leishmania amazonensis) [µg/mL] | IC50 (Leishmania braziliensis) [µg/mL] |
| --- | --- | --- | --- |
| COc1ccc(Cc2nnc(O)c3ccccc23)cc1 | ≥ 100 | ≥ 100 | ≥ 100 |
| Oc1nnc(Cc2ccc3c(c2)OCO3)c2ccccc12 | ≥ 100 | ≥ 100 | ≥ 100 |
| OC1(Cc2ccccc2)c2ccccc2C2=NCCN21 (stereo unspecified) | 60 (≈ 227 µM) | 60 (≈ 227 µM) | 60 (≈ 227 µM) |
| O=c1[nH]nc(Cc2ccccc2)c2ccccc12 | ≥ 100 | ≥ 100 | ≥ 100 |
| OC1(Cc2ccccc2)c2ccccc2C2=NCCCN21 (stereo unspecified) | 45 (≈ 162 µM) | 45 (≈ 162 µM) | 45 (≈ 162 µM) |
| COc1ccc(CCc2cc(O)cc(OC)c2)cc1 | ≥ 100 | ≥ 100 | ≥ 100 |
| O=C(Cc1ccc(Cl)cc1)c1ccccc1C(=O)N1CCCCC1 | ≥ 100 | ≥ 100 | ≥ 100 |
| COc1ccc(C(=O)C(=O)c2ccccc2C(=O)N2CCCC2)cc1 | ≥ 100 | ≥ 100 | ≥ 100 |
| COc1ccc(/C=C2\OC(=O)c3ccccc32)cc1 | ≥ 100 | ≥ 100 | ≥ 100 |
| COc1ccc(Cc2nn(C)c(=O)c3ccccc23)cc1OC | ≥ 100 | ≥ 100 | ≥ 100 |
| COc1cc(C(=O)C(=O)c2ccccc2C(=O)N2CCCCC2)cc(OC)c1OC | 52 (≈ 126 µM) | 28 (≈ 68.1 µM) | 52 (≈ 126 µM) |
| COC(=O)c1c(CCc2ccc(OC)cc2)cc(O)cc1OC | ≥ 100 | ≥ 100 | ≥ 100 |
| COc1ccc(CC2(O)c3ccccc3C3=NCCCN32)cc1 (stereo unspecified) | ≥ 100 | ≥ 100 | ≥ 100 |
| O=C1O/C(=C\c2ccccc2)c2ccccc21 | 45 (≈ 202 µM) | 45 (≈ 202 µM) | 45 (≈ 202 µM) |
| COc1ccc(CCc2cc(O)cc(OC)c2C(=O)N2CCCCC2)cc1 | 7 (≈ 18.9 µM) | 7 (≈ 18.9 µM) | 10 (≈ 27.1 µM) |
| CCN(CC)C(=O)c1ccccc1C(=O)C(=O)c1ccc(OC)cc1 | 75 (≈ 221 µM) | 75 (≈ 221 µM) | 75 (≈ 221 µM) |
| Cn1nc(Cc2ccc(Cl)cc2)c2ccccc2c1=O | 64 (≈ 225 µM) | ≥ 100 | ≥ 100 |
| COc1cc(CC(=O)c2ccccc2C(=O)N2CCCCC2)cc(OC)c1OC | 20 (≈ 50.3 µM) | 10 (≈ 25.2 µM) | 7 (≈ 17.6 µM) |
| COc1ccc(Cc2nnc(O)c3ccccc23)cc1OC | ≥ 100 | ≥ 100 | ≥ 100 |
| COc1ccc(C(=O)C(=O)c2ccccc2C(=O)N2CCCCC2)cc1 | 80 (≈ 228 µM) | ≥ 100 | 80 (≈ 228 µM) |
| COc1ccc(CC(=O)c2ccccc2C(=O)N2CCCCC2)cc1OC | ≥ 100 | ≥ 100 | ≥ 100 |
| COc1ccc(CCc2cc(OC(C)=O)cc(OC)c2C(=O)O)cc1 | 62 (≈ 180 µM) | 62 (≈ 180 µM) | 62 (≈ 180 µM) |
| Cn1nc(Cc2ccc3c(c2)OCO3)c2ccccc2c1=O | ≥ 100 | ≥ 100 | ≥ 100 |
| COc1cc(CC2(O)c3ccccc3C3=NCCN32)cc(OC)c1OC (stereo unspecified) | ≥ 100 | ≥ 100 | ≥ 100 |
| COc1ccc(CCc2cc(O)cc(OC)c2C(=O)O)cc1 [ISONOTHOLAENIC ACID] | 32 (≈ 106 µM) | 32 (≈ 106 µM) | 32 (≈ 106 µM) |
| N=C(N)c1ccc(OCCCCCOc2ccc(C(=N)N)cc2)cc1 [PENTAMIDINE] | 1.3 (≈ 3.82 µM) | 1.3 (≈ 3.82 µM) | 1.3 (≈ 3.82 µM) |
